Laboratory results: US20100136541A1, “IDENTIFICATION AND VERIFICATION OF METHYLATION MARKER SEQUENCES” (Siemens Healthcare Diagnostics Inc., priority 2003, published 2010)

What was measured:
GPX3 CpG sites = experiment: Bisulfite sequencing of CpG sites, cell lines treated vs. untreated; format: cell-based, human; design: unit not given here; conditions: cell line pool
Protocol: (§1) Samples: Paired tumor and adjacent normal tissues from twelve colorectal cancer patients were collected under institutional review board (IRB) approval with patient consent. Tissues were flash frozen in LN2 and stored at −80° C. prior to DNA extraction. All tissues were blinded. Cell lines: A panel of five colorectal cancer cell lines was used. Cells were grown to ˜50% confluence in the appropriate culture medium prior to treatment with 5-aza-2′-deoxycytidine. Optimal concentrations and incubation times (Table 4) were determined by assaying for reduction of p16 promoter methylation using MSP. Cells were harvested, pelleted by centrifugation, and washed twice in Hanks buffered saline solution. Cell pellets were stored at −80° C. Control cells were maintained simultaneously without 5-aza-2′-deoxycytidine treatment. DNA extraction: DNA was purified from tissues and cell lines using the QIAGEN DNeasy® Tissue Kit. Approximately 25-35 mg of each tissue was pulverized under liquid nitrogen before extraction. Elution volume for tissues was 2004. A final volume of […] of cell line DNA was extracted from 15 to 254 of each packed cell pellet (between 10^6-10^7 cells). Purified DNA was stored at −20° C. Bisulfite modification: Modification was performed according to the Frommer method (See Frommer M, et al., PNAS, 89: 1827-1831 (1992).) One μg genomic DNA was diluted into 50 μl with distilled H2O, 5.5 μl of 2M NaOH was added, and the mixture incubated at 37° C. for 10 minutes (to create single stranded DNA). Thirty μl of freshly prepared 10 mM hydroquinone (Sigma) was added to each tube. Five hundred twenty μl of freshly prepared 3M sodium bisulfite (Sigma S-8890), pH 5.0 was then added. Reagents were thoroughly mixed and then covered with mineral oil and incubated at 50° C. for 16 hours. After removing the oil, 1 ml of Wizard DNA Cleanup Resin (Promega A7280) was added to each tube prior to applying the mixture to miniprep column in the DNA Wizard Cleanup kit. The column was washed with 2 ml of 80% isopropanol, and eluted with 50 μl of heated water (60-70° C.). 5.5 μl of 3 M NaOH to was added to each tube, and incubated at room temperature for 5 minutes. Then 1 μl glycogen was added as carrier, 33 μl of 10 M NH4Ac, and 3 volumes of ethanol for DNA precipitation. The pellet was spun down and washed with 70% ethanol, dried and resuspended in 20 μl water. In some instances, the EZ DNA Methylation Kit (Zymo Research) which uses a simplified version of the Frommer method was used. In these cases, 1 μg of genomic DNA was denatured in 0.3M NaOH for 15 minutes at 37° C. followed by incubation at 50° C. for 16 hours in 0.5 mM hydroquinone and a saturated solution of sodium bisulfite at pH 5. Modified DNA was bound to the Zymo column membrane, then desulfonated with 0.3M NaOH for 15 minutes at room temperature. DNA was washed and resuspended with 50 μL 10 mM Tris-HCl-0.1 mM EDTA, pH 7.5 and stored at −20° C. The bisulfite reaction results in conversion of an unmethylated cytosine to uracil. Methylated cytosine remains unchanged after the bisulfite reaction. The resulting bisulfite modified DNA is single stranded. PCR amplification for sequencing: Primers were designed to amplify both methylated and unmethylated fragments of DNA (Table 5). Five μL of modified DNA ( 1/10 of modification reaction) was amplified first in a 254, reaction volume containing 10 mM Tris-HCl pH8.3, 50 mM KCl, 1.5 mM to 2 mM MgCl2, (Applied Biosystems), 0.25 mM each dNTP, 0.5 unit AmpliTaq (Applied Biosystems), and sequencing primers (each at 200 nM). Cycling conditions were 10 minutes at 95° C., 40 cycles of 30 seconds at 95° C., 30 seconds at 54-62° C., 30 seconds at 72° C., subsequently followed by extension for 5 minutes at 72° C.
(§2) Reaction products were purified either by the shrimp-alkaline phosphatase-Exol standard method or on the Qiagen Qiaquick PCR clean-up column and eluted in 30 μL 10 mM Tris-HCl, pH8.5. […]

SCNN1B CpG sites = experiment: as above; format: cell-based, human; design: unit not given here
Protocol: as §1, §2

Nc1ncn([C@H]2C[C@H](O)[C@@H](CO)O2)c(=O)n1 [5-aza-2′-deoxycytidine]
Sequencing results for GPX3, CpG site #25 (GPX3 CpG sites): 70
Sequencing results for GPX3, CpG site #27 (GPX3 CpG sites): 100
Sequencing results for GPX3, CpG site #31 (GPX3 CpG sites): 67
Sequencing results for GPX3, CpG site #49 (GPX3 CpG sites): 70
Sequencing results for GPX3, CpG site #56 (GPX3 CpG sites): 98
Sequencing results for GPX3, CpG site #75 (GPX3 CpG sites): 72
Sequencing results for GPX3, CpG site #84 (GPX3 CpG sites): 77
Sequencing results for GPX3, CpG site #86 (GPX3 CpG sites): 74
Sequencing results for GPX3, CpG site #101 (GPX3 CpG sites): 84
Sequencing results for GPX3, CpG site #126 (GPX3 CpG sites): 75
Sequencing results for GPX3, CpG site #129 (GPX3 CpG sites): 80
Sequencing results for GPX3, CpG site #142 (GPX3 CpG sites): 97
Sequencing results for GPX3, CpG site #146 (GPX3 CpG sites): 80
Sequencing results for GPX3, CpG site #167 (GPX3 CpG sites): 89
SCNN1B sequencing result (methylation) at CpG site #179 (SCNN1B CpG sites; HT29 treated): 70
SCNN1B sequencing result (methylation) at CpG site #192 (SCNN1B CpG sites; HT29 treated): 90
SCNN1B sequencing result (methylation) at CpG site #203 (SCNN1B CpG sites; HT29 treated): 36
SCNN1B sequencing result (methylation) at CpG site #223 (SCNN1B CpG sites; HT29 treated): 79
SCNN1B sequencing result (methylation) at CpG site #228 (SCNN1B CpG sites; HT29 treated): 74
SCNN1B sequencing result (methylation) at CpG site #230 (SCNN1B CpG sites; HT29 treated): 67
SCNN1B sequencing result (methylation) at CpG site #234 (SCNN1B CpG sites; HT29 treated): 69
SCNN1B sequencing result (methylation) at CpG site #238 (SCNN1B CpG sites; HT29 treated): 75
SCNN1B sequencing result (methylation) at CpG site #245 (SCNN1B CpG sites; HT29 treated): 65
SCNN1B sequencing result (methylation) at CpG site #267 (SCNN1B CpG sites; HT29 treated): 55
SCNN1B sequencing result (methylation) at CpG site #295 (SCNN1B CpG sites; HT29 treated): 26
SCNN1B sequencing result (methylation) at CpG site #179 (SCNN1B CpG sites; LS123 treated): 56
SCNN1B sequencing result (methylation) at CpG site #192 (SCNN1B CpG sites; LS123 treated): 63
SCNN1B sequencing result (methylation) at CpG site #203 (SCNN1B CpG sites; LS123 treated): 42
SCNN1B sequencing result (methylation) at CpG site #223 (SCNN1B CpG sites; LS123 treated): 90
SCNN1B sequencing result (methylation) at CpG site #228 (SCNN1B CpG sites; LS123 treated): 87
SCNN1B sequencing result (methylation) at CpG site #230 (SCNN1B CpG sites; LS123 treated): 82
SCNN1B sequencing result (methylation) at CpG site #234 (SCNN1B CpG sites; LS123 treated): 80
SCNN1B sequencing result (methylation) at CpG site #238 (SCNN1B CpG sites; LS123 treated): 77
SCNN1B sequencing result (methylation) at CpG site #245 (SCNN1B CpG sites; LS123 treated): 81
SCNN1B sequencing result (methylation) at CpG site #267 (SCNN1B CpG sites; LS123 treated): 59
SCNN1B sequencing result (methylation) at CpG site #295 (SCNN1B CpG sites; LS123 treated): 23
SCNN1B sequencing result (methylation) at CpG site #179 (SCNN1B CpG sites; LS174T treated): 7
SCNN1B sequencing result (methylation) at CpG site #192 (SCNN1B CpG sites; LS174T treated): 56
SCNN1B sequencing result (methylation) at CpG site #203 (SCNN1B CpG sites; LS174T treated): 40
SCNN1B sequencing result (methylation) at CpG site #223 (SCNN1B CpG sites; LS174T treated): 75
SCNN1B sequencing result (methylation) at CpG site #228 (SCNN1B CpG sites; LS174T treated): 81
SCNN1B sequencing result (methylation) at CpG site #230 (SCNN1B CpG sites; LS174T treated): 72
SCNN1B sequencing result (methylation) at CpG site #234 (SCNN1B CpG sites; LS174T treated): 70
SCNN1B sequencing result (methylation) at CpG site #238 (SCNN1B CpG sites; LS174T treated): 55
SCNN1B sequencing result (methylation) at CpG site #245 (SCNN1B CpG sites; LS174T treated): 40
SCNN1B sequencing result (methylation) at CpG site #267 (SCNN1B CpG sites; LS174T treated): 47
SCNN1B sequencing result (methylation) at CpG site #295 (SCNN1B CpG sites; LS174T treated): 7
SCNN1B sequencing result (methylation) at CpG site #179 (SCNN1B CpG sites; SW480 treated): 80
SCNN1B sequencing result (methylation) at CpG site #192 (SCNN1B CpG sites; SW480 treated): 44
SCNN1B sequencing result (methylation) at CpG site #203 (SCNN1B CpG sites; SW480 treated): 21
SCNN1B sequencing result (methylation) at CpG site #223 (SCNN1B CpG sites; SW480 treated): 89
SCNN1B sequencing result (methylation) at CpG site #228 (SCNN1B CpG sites; SW480 treated): 83
SCNN1B sequencing result (methylation) at CpG site #230 (SCNN1B CpG sites; SW480 treated): 80
SCNN1B sequencing result (methylation) at CpG site #234 (SCNN1B CpG sites; SW480 treated): 80
SCNN1B sequencing result (methylation) at CpG site #238 (SCNN1B CpG sites; SW480 treated): 87
SCNN1B sequencing result (methylation) at CpG site #245 (SCNN1B CpG sites; SW480 treated): 51
SCNN1B sequencing result (methylation) at CpG site #267 (SCNN1B CpG sites; SW480 treated): 57
SCNN1B sequencing result (methylation) at CpG site #295 (SCNN1B CpG sites; SW480 treated): 69
SCNN1B sequencing result (methylation) at CpG site #179 (SCNN1B CpG sites; SW620 treated): 59
SCNN1B sequencing result (methylation) at CpG site #192 (SCNN1B CpG sites; SW620 treated): 88
SCNN1B sequencing result (methylation) at CpG site #203 (SCNN1B CpG sites; SW620 treated): 30
SCNN1B sequencing result (methylation) at CpG site #223 (SCNN1B CpG sites; SW620 treated): 93
SCNN1B sequencing result (methylation) at CpG site #228 (SCNN1B CpG sites; SW620 treated): 95
SCNN1B sequencing result (methylation) at CpG site #230 (SCNN1B CpG sites; SW620 treated): 94
SCNN1B sequencing result (methylation) at CpG site #234 (SCNN1B CpG sites; SW620 treated): 91
SCNN1B sequencing result (methylation) at CpG site #238 (SCNN1B CpG sites; SW620 treated): 86
SCNN1B sequencing result (methylation) at CpG site #245 (SCNN1B CpG sites; SW620 treated): 26
SCNN1B sequencing result (methylation) at CpG site #267 (SCNN1B CpG sites; SW620 treated): 67
SCNN1B sequencing result (methylation) at CpG site #295 (SCNN1B CpG sites; SW620 treated): 23
